Measured values: US8959984B2, “Proteome-wide quantification of small molecule binding to cellular target proteins” (priority 2007, dated 2015)
Like-named read-outs stand apart in the source and are kept apart here.

What was measured:
ROCK2 = ROCK2 (Homo sapiens, UniProt O75116); test: binding to immobilized V16742 (IVA1/IVA2, HeLa lysate, MS)
DYRK1A = biological target: T1, DYRK1A (Homo sapiens, UniProt Q13627); test: as above
T1 construct: endogenous in cells; host or cells: HeLa S3

TLK1 = biological target: T2, TLK1 (Homo sapiens, UniProt Q9UKI8); test: as above
T2 construct: endogenous in cells; host or cells: HeLa S3
T2 sequence (Q9UKI8 1-766): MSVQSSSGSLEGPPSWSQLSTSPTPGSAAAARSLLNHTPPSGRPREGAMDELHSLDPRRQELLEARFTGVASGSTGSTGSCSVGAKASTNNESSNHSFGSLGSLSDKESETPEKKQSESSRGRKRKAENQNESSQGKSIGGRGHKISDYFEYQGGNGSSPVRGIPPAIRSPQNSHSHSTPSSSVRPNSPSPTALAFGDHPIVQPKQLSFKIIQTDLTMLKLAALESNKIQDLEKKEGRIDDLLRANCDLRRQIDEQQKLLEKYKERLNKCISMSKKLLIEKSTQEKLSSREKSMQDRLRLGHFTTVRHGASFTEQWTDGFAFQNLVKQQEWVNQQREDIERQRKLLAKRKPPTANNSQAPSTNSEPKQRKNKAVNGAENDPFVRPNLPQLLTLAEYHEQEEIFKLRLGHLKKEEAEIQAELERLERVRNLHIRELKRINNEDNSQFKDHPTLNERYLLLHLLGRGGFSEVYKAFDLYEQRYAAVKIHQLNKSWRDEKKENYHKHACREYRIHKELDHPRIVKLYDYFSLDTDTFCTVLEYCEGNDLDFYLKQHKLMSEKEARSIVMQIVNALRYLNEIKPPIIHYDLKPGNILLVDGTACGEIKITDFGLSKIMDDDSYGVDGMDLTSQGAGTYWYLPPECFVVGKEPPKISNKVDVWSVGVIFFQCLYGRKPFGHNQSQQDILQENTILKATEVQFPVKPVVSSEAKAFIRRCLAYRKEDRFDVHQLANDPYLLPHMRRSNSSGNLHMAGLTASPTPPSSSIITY

RPL7 = RPL7 (Homo sapiens, UniProt P18124)
BLMH = biological target: T3, BLMH (Homo sapiens, UniProt Q13867); test: gefitinib competition against AX14596 beads (HeLa lysate, SILAC MS); assay type: binding
T3 construct: endogenous in cells; host or cells: HeLa S3
T3 sequence (Q13867 1-455): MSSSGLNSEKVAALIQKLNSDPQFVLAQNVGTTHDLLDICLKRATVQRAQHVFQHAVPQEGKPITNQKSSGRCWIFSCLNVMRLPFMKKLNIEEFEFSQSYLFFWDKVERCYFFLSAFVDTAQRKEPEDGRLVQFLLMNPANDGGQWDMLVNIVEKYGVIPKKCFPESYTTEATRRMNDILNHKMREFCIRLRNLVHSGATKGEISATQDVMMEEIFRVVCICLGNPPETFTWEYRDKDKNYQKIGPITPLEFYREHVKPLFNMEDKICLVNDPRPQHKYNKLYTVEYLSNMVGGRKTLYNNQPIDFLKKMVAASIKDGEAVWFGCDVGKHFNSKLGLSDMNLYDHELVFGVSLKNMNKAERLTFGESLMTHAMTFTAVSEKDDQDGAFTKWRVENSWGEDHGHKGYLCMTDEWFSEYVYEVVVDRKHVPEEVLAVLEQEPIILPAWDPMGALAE

SgK085 (MYLK3) = biological target: T4, SgK085 (MYLK3) (Homo sapiens, UniProt Q32MK0)
T4 sequence (Q32MK0 1-819): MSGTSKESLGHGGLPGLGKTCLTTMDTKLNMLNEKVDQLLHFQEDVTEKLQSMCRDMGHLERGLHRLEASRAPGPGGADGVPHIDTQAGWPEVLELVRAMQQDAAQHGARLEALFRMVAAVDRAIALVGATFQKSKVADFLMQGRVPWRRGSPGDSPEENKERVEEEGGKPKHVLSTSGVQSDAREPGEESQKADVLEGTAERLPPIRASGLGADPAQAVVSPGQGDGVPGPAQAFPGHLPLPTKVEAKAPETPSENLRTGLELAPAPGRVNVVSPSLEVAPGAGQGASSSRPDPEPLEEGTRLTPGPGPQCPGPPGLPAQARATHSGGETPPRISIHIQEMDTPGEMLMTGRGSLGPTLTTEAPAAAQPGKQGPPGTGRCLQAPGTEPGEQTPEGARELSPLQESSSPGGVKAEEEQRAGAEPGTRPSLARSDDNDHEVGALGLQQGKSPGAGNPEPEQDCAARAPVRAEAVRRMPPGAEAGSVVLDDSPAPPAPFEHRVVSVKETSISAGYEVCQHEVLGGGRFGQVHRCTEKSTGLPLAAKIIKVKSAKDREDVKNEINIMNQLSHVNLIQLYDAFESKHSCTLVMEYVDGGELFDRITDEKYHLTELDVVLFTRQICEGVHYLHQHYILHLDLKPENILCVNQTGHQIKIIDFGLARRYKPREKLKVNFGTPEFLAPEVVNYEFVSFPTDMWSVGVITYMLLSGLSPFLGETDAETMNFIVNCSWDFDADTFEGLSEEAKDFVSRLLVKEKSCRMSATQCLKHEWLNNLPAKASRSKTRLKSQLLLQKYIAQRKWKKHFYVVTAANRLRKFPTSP

CaMK2d (CAMK2D) = CaMK2d (CAMK2D) (Homo sapiens, UniProt Q13557)
Chain of CaMK2d (CAMK2D) (Q13557 whole entry): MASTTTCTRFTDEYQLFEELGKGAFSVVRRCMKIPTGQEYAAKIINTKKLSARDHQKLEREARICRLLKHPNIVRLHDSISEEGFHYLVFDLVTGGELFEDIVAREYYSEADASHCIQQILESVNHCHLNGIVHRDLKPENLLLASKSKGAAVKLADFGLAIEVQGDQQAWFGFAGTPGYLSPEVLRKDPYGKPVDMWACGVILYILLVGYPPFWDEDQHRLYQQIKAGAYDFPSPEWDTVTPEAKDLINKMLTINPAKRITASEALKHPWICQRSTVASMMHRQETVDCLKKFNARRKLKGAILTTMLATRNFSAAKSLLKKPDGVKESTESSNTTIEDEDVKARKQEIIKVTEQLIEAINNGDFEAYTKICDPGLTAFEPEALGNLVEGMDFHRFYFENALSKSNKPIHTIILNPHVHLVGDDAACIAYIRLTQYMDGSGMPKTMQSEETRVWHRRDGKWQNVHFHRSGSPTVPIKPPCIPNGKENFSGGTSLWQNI

[1] = average of two experiments, read-out: Kd Avg

Chain of ROCK2 (O75116 whole entry): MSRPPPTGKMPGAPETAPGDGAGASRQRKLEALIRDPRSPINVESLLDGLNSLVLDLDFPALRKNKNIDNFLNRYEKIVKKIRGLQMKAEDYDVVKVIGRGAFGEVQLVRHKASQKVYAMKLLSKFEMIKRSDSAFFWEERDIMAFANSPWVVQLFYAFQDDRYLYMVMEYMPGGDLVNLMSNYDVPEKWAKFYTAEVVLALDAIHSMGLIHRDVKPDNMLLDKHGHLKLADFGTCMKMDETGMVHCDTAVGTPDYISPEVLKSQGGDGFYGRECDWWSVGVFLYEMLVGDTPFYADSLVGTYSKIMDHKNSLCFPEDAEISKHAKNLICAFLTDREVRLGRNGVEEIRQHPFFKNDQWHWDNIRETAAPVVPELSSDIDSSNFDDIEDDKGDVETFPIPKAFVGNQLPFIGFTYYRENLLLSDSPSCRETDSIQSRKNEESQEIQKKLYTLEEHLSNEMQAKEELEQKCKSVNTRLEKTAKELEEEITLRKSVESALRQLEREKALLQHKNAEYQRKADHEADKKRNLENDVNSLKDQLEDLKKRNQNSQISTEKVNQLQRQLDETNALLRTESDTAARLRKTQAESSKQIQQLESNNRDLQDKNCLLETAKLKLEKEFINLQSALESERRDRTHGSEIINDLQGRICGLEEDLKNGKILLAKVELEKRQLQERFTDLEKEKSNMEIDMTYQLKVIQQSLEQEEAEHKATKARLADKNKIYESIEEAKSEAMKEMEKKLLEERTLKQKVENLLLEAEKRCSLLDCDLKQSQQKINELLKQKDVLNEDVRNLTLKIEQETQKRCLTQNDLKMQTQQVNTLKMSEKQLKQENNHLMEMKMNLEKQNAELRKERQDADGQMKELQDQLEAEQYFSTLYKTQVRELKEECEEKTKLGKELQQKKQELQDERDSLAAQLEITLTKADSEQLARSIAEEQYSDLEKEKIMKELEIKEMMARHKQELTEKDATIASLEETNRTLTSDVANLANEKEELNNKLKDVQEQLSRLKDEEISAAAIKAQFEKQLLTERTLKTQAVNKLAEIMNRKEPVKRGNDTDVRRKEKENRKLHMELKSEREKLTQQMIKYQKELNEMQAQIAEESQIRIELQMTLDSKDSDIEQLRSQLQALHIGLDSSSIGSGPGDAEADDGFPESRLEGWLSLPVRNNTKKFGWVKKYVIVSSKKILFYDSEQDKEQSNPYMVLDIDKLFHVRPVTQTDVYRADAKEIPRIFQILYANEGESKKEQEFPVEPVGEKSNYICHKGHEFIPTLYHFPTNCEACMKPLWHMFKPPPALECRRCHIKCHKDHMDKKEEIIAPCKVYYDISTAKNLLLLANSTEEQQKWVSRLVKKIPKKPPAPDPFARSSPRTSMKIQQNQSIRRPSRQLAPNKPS

With CC(C)n1c(=O)ccc2cnc(Nc3ccc(OCCN)cc3)nc21 [V16742] the “affinity class of target for V16742” value (ROCK2) was “Very low affinity target not significantly enriched in IVA2”, the “Percent bound at various 16742 conc” value (DYRK1A; Experiment 1, 1.87 μM 16742) was 5.75% and the “Percent bound at various 16742 conc” value (DYRK1A; Experiment 1, 8.74 μM 16742) was 14.82%. The “Percent bound at various 16742 conc” value (DYRK1A; Experiment 1, 52 μM 16742) was 52.16%, the Kd (DYRK1A; Experiment 1, read-out: Kd) was 47.8 µM and the “Percent bound at various 16742 conc” value (DYRK1A; Experiment 2, 1.87 μM 16742) was 1.08%. The “Percent bound at various 16742 conc” value (DYRK1A; Experiment 2, 8.74 μM 16742) was 3.76%, the “Percent bound at various 16742 conc” value (DYRK1A; Experiment 2, 52 μM 16742) was 28.11% and the Kd (DYRK1A; Experiment 2, read-out: Kd) was 137 µM. For the same compound, the Kd (DYRK1A; [1]) was 92.5 µM, the “Percent bound at various 16742 conc” value (TLK1; Experiment 1, 1.87 μM 16742) was 1.34% and the “Percent bound at various 16742 conc” value (TLK1; Experiment 1, 8.74 μM 16742) was 2.39%. For the same compound, the “Percent bound at various 16742 conc” value (TLK1; Experiment 1, 52 μM 16742) was 49.12%, the Kd (TLK1; Experiment 1, read-out: Kd) was 64 µM and the “Percent bound at various 16742 conc” value (TLK1; Experiment 2, 1.87 μM 16742) was 0.76%. For the same compound, the “Percent bound at various 16742 conc” value (TLK1; Experiment 2, 8.74 μM 16742) was 1.97%, the “Percent bound at various 16742 conc” value (TLK1; Experiment 2, 52 μM 16742) was 31.56% and the Kd (TLK1; Experiment 2, read-out: Kd) was 121 µM. The Kd (TLK1; [1]) was 92.4 µM.
For COc1cc2ncnc(Nc3ccc(F)c(Cl)c3)c2cc1OCCCN1CCOCC1 [gefitinib], the “rAVERAGE (10 nM/0 nM Gef.)” value (RPL7) was 0.84, the “rAVERAGE (100 nM/0 nM Gef.)” value (RPL7) was 1.08 and the “rAVERAGE (1000 nM/0 nM Gef.)” value (RPL7) was 0.86. For the same compound, the “rAVERAGE (10000 nM/0 nM Gef.)” value (RPL7) was 0.98, the IC50 (BLMH) was 0.223 µM and the “rAVERAGE (10 nM/0 nM Gef.)” value (BLMH) was 0.82. The “rAVERAGE (100 nM/0 nM Gef.)” value (BLMH) was 0.53, the “rAVERAGE (1000 nM/0 nM Gef.)” value (BLMH) was 0.43 and the “rAVERAGE (10000 nM/0 nM Gef.)” value (BLMH) was 0.11. The Ki (BLMH; read-out: Ki (Gef)) was 0.0779 µM, the “rAVERAGE (10 nM/0 nM Gef.)” value (SgK085 (MYLK3)) was 0.97 and the “rAVERAGE (100 nM/0 nM Gef.)” value (SgK085 (MYLK3)) was 1.01. For the same compound, the “rAVERAGE (1000 nM/0 nM Gef.)” value (SgK085 (MYLK3)) was 0.98, the “rAVERAGE (10000 nM/0 nM Gef.)” value (SgK085 (MYLK3)) was 0.53 and the “rAVERAGE (10 nM/0 nM Gef.)” value (CaMK2d (CAMK2D)) was 0.89. The “rAVERAGE (100 nM/0 nM Gef.)” value (CaMK2d (CAMK2D)) was 1.11, the “rAVERAGE (1000 nM/0 nM Gef.)” value (CaMK2d (CAMK2D)) was 0.91 and the “rAVERAGE (10000 nM/0 nM Gef.)” value (CaMK2d (CAMK2D)) was 0.93.
